In assay [1] the target is T1, HNF-4α (Rattus norvegicus, UniProt P22449).
T1 construct: GST-HNF-4α(LBD) fusion protein consisting of amino acids 96-455 of wild type HNF-4α fused to GST; fused on or other part: Glutathione-S-transferase (GST) at the N-terminus of the LBD construct; 6-histidine tag on the full-length construct
T1 sequence (P22449 105-464 isoform P22449-2 limits assumed): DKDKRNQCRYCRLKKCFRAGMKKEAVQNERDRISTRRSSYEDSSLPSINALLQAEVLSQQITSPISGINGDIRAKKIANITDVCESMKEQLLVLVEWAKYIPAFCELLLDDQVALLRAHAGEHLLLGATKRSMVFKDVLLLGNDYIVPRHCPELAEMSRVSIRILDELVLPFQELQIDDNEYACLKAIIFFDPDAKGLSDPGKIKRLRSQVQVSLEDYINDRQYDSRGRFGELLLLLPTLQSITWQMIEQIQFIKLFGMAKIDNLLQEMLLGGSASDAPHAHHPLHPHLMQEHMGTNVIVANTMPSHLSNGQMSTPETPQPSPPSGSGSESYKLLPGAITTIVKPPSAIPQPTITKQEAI
Description: Ligand binding assay with [3H]palmitoyl(16:0)-CoA on recombinant GST-HNF-4α(LBD) or His-HNF-4α. As to the method:
a. […] The respective recombinant proteins are incubated to equilibrium with [^3H]palmitoyl(16:0)-CoA (0.05 μCi) and with increasing nonlabeled palmitoyl(16:0)-CoA as indicated.
b. […] The respective recombinant proteins are incubated with 8 nM of [^3H]palmitoyl(16:0)-CoA (60 Ci/mmol) and with increasing nonlabeled myristoyl(14:0)-CoA as indicated. Percent bound refers to radiolabeled [^3H]palmitoyl(16:0)-CoA in the bound fraction. […] Percent bound refers to radiolabeled [^3H]palmitoyl(16:0)-CoA in the bound fraction.
Rat HNF-4α1 cDNA(pLEN4S)^1 was subcloned into the glutathione-S-transferase (GST) encoding pGEX-2T plasmid (Pharmacia) and the resultant plasmid was cleaved with smaI and AccI and religated to yield the GST-HNF-4α(LBD) fusion plasmid. […] The full length HNF-4α1 cDNA cloned into 6His-pET11d vector was expressed in E.coli BL21 (DE3)plysS.
Recombinant GST-HNF-4α(LBD) (100 pmol) or His-HNF-4α (100 pmol) were incubated for 60 min at 22° C. with [^3H]palmitoyl(16:0)-CoA (American RadiolabeledChemicals) in 100 μl of 10 mM phosphate buffer (pH 7.4). Competitor ligands or solvent carrier were added as indicated. Free and HNF-4α bound ^3[H]palmitoyl(16:0)-CoA were separated by […] and bound ligand was quantified by liquid scintillation counting. Nonspecific binding of [^3H]palmitoyl(16:0)-CoA was determined by its binding to the GST moiety or to carbonic anhydrase as nonrelevant protein.
Binding was exemplified with either the ligand binding domain of HNF-4α fused to glutathione-s-transferase (GST-HNF-4α(LBD)) or the full length HNF-4α protein tagged by 6 histidines (His-HNF-4α).

Assay [2] has as its target T2, HNF-4α (Rattus norvegicus, UniProt P22449).
T2 sequence (P22449 1-464 isoform P22449-2): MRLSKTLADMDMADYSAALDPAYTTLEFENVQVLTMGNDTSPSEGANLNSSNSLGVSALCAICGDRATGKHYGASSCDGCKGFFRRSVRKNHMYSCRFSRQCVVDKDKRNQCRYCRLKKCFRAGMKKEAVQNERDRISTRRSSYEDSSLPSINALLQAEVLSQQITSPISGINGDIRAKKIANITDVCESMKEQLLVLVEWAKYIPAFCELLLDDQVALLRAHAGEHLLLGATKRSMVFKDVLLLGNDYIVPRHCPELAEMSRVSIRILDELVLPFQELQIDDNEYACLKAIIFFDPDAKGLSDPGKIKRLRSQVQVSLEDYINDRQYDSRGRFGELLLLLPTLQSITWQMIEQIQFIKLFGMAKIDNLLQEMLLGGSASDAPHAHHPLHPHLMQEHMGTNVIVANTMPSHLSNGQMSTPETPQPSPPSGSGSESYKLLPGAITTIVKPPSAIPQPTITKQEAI
Description: Transfection assay: COS-7 cells cotransfected with (C3P)3-TK-CAT reporter and pSG5-HNF-4α. To be noted: for EC50: proligands added to culture medium of COS-7 cells (FIG. 4b), read-out: EC50 of HNF-4α suppression (CAT activity); for inhibition of HNF-4α transcriptional activity, effectiveness in words: transfection assays, added to culture medium. Also on record: expressed in transfected cells; host or cells: COS-7. The assay is classed as cell-based. As to the method:
a. […] Fold induction of CAT activity by transfected HNF-4I is determined by evaluating CAT activity in the presence of pSG5-HNF-4I as compared with pSG5 plasmid and as function of respective fatty acids added to the culture medium as indicated. The figure summarizes 3-4 independent experiments for each fatty acid. Mean ± S.E.
b. […] Fold induction refers to CAT activity in cells incubated with 3,3,12,12-tetramethyl-tetradecanedioic acid (∘), 3,3,14,14-tetramethyl-hexadecanedioic acid (□) and 3,3,16,16-tetramethyl-octadecanedioic acid (Δ) proligands normalized to the activity in cells incubated in the absence of added proligands.
COS-7 cells cotransfected for 6 h with the (C3P)3-TK-CAT reporter plasmid (5 μg) and with either the pSG5-HNF-4α expression plasmid ([…]) or the pSG5 plasmid (0.025 μg) added by calcium phosphate precipitation were cultured in serum free medium with fatty acids (complexed with albumin in a molar ratio of 6:1) added as indicated. β-Galactosidase expression vector pRSGAL (1 μg) added to each precipitate served as an internal control for transfection. The (C3P)3-TK-CAT construct was prepared by inserting a synthetic oligonucleotide encompassing the (−87/−66) Apo CIII promoter sequence (5′-[…]-3′) flanked by HindIII restriction site into pBLCAT2^47 upstream of the −105 bp thymidine kinase promoter. The construct containing three copies of the synthetic oligonucleotide in the direct orientation was selected and confirmed by sequencing.
The intracellular effect of HNF-4α ligands on HNF-4α mediated transcription was evaluated in COS-7 cells cotransfected with an expression vector for HNF-4α and with a CAT reporter plasmid driven by a thymidine kinase promoter and enhanced by one to three C3P copies of the apo CIII gene promoter. Transfected cells were incubated in the presence of free fatty acids and xenobiotic amphipathic carboxylates representing agonistic or antagonistic HNF-4α proligands.

The target in assay [3] is T2, HNF-4α. Description: Gel mobility shift assay: His-HNF-4α binding to C3P apo CIII promoter oligonucleotide. In kind it is biochemical. Also on record: The full length HNF-4α1 cDNA cloned into 6His-pET11d vector was expressed in E.coli BL21 (DE3)plysS; 6His; made in house; host or cells: E. coli BL21 (DE3)plysS. To be noted: for direct effect on HNF-4α (summary): summary statement of Example 4. As to the method: a. His-HNF-4I (14 ng) binding to C3P in the absence (lane 1) or presence of 10 μM each of myristoyl(14:0)-CoA (lane 2) or palmitoyl(16:0)-CoA (lane 3).
b. His-HNF-4I (20 ng) binding to C3P in the absence (lane 1) or presence of 10 μM each of stearoyl(18:0)-CoA (lane 2) or linolenoyl(18:3, w-3)-CoA (lane 3).
c. Activation of His-HNF-4I (14 ng) binding to C3P by increasing concentrations of myristoyl(14:0)-CoA. The gel section containing radiolabeled C3P bound to His-HNF-4I dimer is shown.
His-HNF-4α and acyl-CoA (as indicated) were preincubated for 30 min at 22° C. in 11 mM Hepes (pH 7.9) containing 50 mM KCl, 1 mM dithiothreitol. 2.5 mM MgCl2, 10% glycerol, 1 μg of poly(dI-dC) in a final volume of 20 μl. ^32P-labeled oligonucleotide (0.1 ng) consisting of the human C3P apo CIII promoter sequence,(−87/−66)^6 was then added, and incubation was continued for an additional 15 min. Protein-DNA complexes were resolved by 5% nondenaturing polyacrylamide gel in 0.6×TBE and quantitated by PhosphorImager analysis.
HNF-4α activity as a function of binding of long chain acyl-CoAs was evaluated by studying the binding of HNF-4α to its cognate C3P element of the apo CIII promoter sequence (−87/−66)^6 in the presence or absence of added acyl-CoAs of variable chain length, degree of saturation, and degree of substitution. Binding was verified by using a gel mobility shift assay. […] Activation was concentration dependent and maximal in the presence of myristoyl(14:0)-CoA added within a concentration range required for its binding to HNF-4α.

Where [4] appears, read: competition with 8 nM [3H]palmitoyl(16:0)-CoA, GST-HNF-4α(LBD) or His-HNF-4α, read-out: EC50 (50% specific competition).

Bounds are passed on as bounds.

By EC50 is commonly meant the midpoint of the concentration-response curve.

For `CC(C)(CCCCCCCCC(C)(C)CC(=O)O)CC(=O)O` [3,3,12,12-tetramethyl-tetradecanedioic acid], the EC50 in assay [1] (setting [4]) was 40 µM; in assay [2], more than 300 µM. On to `CC(C)(CCCCCCCCCCC(C)(C)CC(=O)O)CC(=O)O` [3,3,14,14-tetramethyl-hexadecanedioic acid], for which the EC50 in assay [1] (setting [4]) was 8 µM. Besides, in assay [2], the EC50 was determined as 155 µM and the “inhibition of HNF-4α transcriptional activity, effectiveness in words” value is “Highly effective”. On the same counts, the results for `CC(C)(CCCCCCCCCCCCC(C)(C)CC(=O)O)CC(=O)O` [3,3,16,16-tetramethyl-octadecanedioic acid] are 8 µM, 150 µM and “Highly effective”. For `CC(C)(Oc1ccc(CCNC(=O)c2ccc(Cl)cc2)cc1)C(=O)O` [Bezafibrate, reference compound], the EC50 was 90 µM in assay [1] and 260 µM in assay [2]. `CC/C=C\C/C=C\C/C=C\C/C=C\C/C=C\C/C=C\CCC(=O)SCCNC(=O)CCNC(=O)[C@H](O)C(C)(C)COP(=O)(O)OP(=O)(O)OC[C@H]1O[C@@H](n2cnc3c(N)ncnc32)[C@H](O)[C@@H]1OP(=O)(O)O` [Docosahexaenoyl(22:6)-CoA]: the 50% effective concentration (EC50) in assay [1] (setting [4]) was found to be 1.6 µM. Moreover, the “direct effect on HNF-4α (summary)” value in assay [3] is “direct inhibition”. On to `CCCCCCCCCCCC(=O)SCCNC(=O)CCNC(=O)[C@H](O)C(C)(C)COP(=O)(O)OP(=O)(O)OC[C@H]1O[C@@H](n2cnc3c(N)ncnc32)[C@H](O)[C@@H]1OP(=O)(O)O` [Dodecanoyl(12:0)-CoA, reference compound], for which the half-maximal effective concentration (EC50) in assay [1] (setting [4]) was determined as 2.3 µM. On to `CC/C=C\C/C=C\C/C=C\C/C=C\C/C=C\CCCC(=O)SCCNC(=O)CCNC(=O)[C@H](O)C(C)(C)COP(=O)(O)OP(=O)(O)OC[C@H]1O[C@@H](n2cnc3c(N)ncnc32)[C@H](O)[C@@H]1OP(=O)(O)O` [Eicosapentaenoyl(20:5)-CoA], for which the concentration giving a half-maximal response (EC50) in assay [1] (setting [4]) is 0.6 µM. The “direct effect on HNF-4α (summary)” value in assay [3] is “direct inhibition”. Turning to `CC(C)Cc1ccc(C(C)C(=O)O)cc1` (centres unmarked) [Ibuprofen, reference compound], the EC50 in assay [1] (setting [4]) stood at 40 µM. With `CC/C=C\C/C=C\C/C=C\CCCCCCCC(=O)SCCNC(=O)CCNC(=O)[C@H](O)C(C)(C)COP(=O)(O)OP(=O)(O)OC[C@H]1O[C@@H](n2cnc3c(N)ncnc32)[C@H](O)[C@@H]1OP(=O)(O)O` [Linolenoyl(18:3)-CoA], the “effect on His-HNF-4α binding to C3P oligonucleotide” value in assay [3] (gel mobility shift, 10 μM acyl-CoA (FIG. 2)) is reported as “potent inhibition”. Also, in assay [3], the “direct effect on HNF-4α (summary)” value is on record as “direct inhibition”. `CCCCC/C=C\C/C=C\CCCCCCCC(=O)SCCNC(=O)CCNC(=O)[C@H](O)C(C)(C)COP(=O)(O)OP(=O)(O)OC[C@H]1O[C@@H](n2cnc3c(N)ncnc32)[C@H](O)[C@@H]1OP(=O)(O)O` [Linoleoyl(18:2)-CoA]: the 50% effective concentration (EC50) in assay [1] (setting [4]) turned out to be 1.9 µM. Take `CC(C)(Oc1ccc(C2CCCc3ccccc32)cc1)C(=O)O` (centres unmarked) [Nafenopin, reference compound]: the 50% effective concentration (EC50) in assay [1] (setting [4]) came to 90 µM; in assay [2], 160 µM.

On to `CCCCCCCC/C=C\CCCCCCCC(=O)SCCNC(=O)CCNC(=O)[C@H](O)C(C)(C)COP(=O)(O)OP(=O)(O)OC[C@H]1O[C@@H](n2cnc3c(N)ncnc32)[C@H](O)[C@@H]1OP(=O)(O)O` [Oleoyl(18:1)-CoA], for which, in assay [1] (setting [4]), the EC50 amounted to 1.4 µM. For `CC(C)(COP(=O)(O)OP(=O)(O)OC[C@H]1O[C@@H](n2cnc3c(N)ncnc32)[C@H](O)[C@@H]1OP(=O)(O)O)[C@@H](O)C(=O)NCCC(=O)NCCS` [free CoA], in assay [1] (GST-HNF-4α(LBD) or His-HNF-4α), the “binding to HNF-4α (in words)” value was “inactive”.

The values are drawn from patent US20040171688A1, “Carboxylic acids and derivatives thereof and pharmaceutical compositions containing them” (priority 1997, published 2004).
